In patent publication US20040014215A1, “Synchronised arabidopsis cell suspensions and uses thereof” (priority 2000, published 2004):

Experiments:
[1] = test system: Arabidopsis cell suspension culture MM1; assay: Aphidicolin (4.16 μg/ml, 21.5 hrs) block/release of MM1: proportion of G1, S and G2 cells by flow cytometry; format: cell-based, Arabidopsis thaliana
Description: (§1) Arabidopsis cell suspension culture MM1 (DSM 13563) was used for synchronisation experiments. The suspension culture was maintained by sub-culturing weekly 10 ml into 200 ml of fresh MSS-medium (MS-salt, 3% sucrose, 0.5 mg/l NAA, 0.05 mg/l kinetin) which is cultured in 500 ml narrow neck Erlenmeyer flasks, of which the opening is covered with double layer of aluminium foil and loosely covered with Saran wrap and which are placed on a GYROTORY® Shaker (New Brunswick Scientific). The cell suspension culture was grown under continuous light conditions (24 hrs a day); Philips lamps were used with the specification TLD HF 50W/840; light level is in average 1300 Lux and the cell suspension culture is rotated at 120 rpm at a temperature varying between 23-25° C. To arrest cells reversibly in late G1/early S-phase, cells were blocked with aphidicolin according to Nagata et al. 1992 (with slight modifications), 40 ml of an early stationary phase cell suspension culture was subcultured into 200 ml MSS-medium, 4.16 μg/ml aphidicolin was added to block cells at the end of G1/early S-phase, and the culture was incubated at 23° C., 120 rpm in the conditions as described above for MM1, for a period of 21.5 hrs. To remove aphidicolin, cells were washed through a nylon mesh (mesh size 47 μm) with 11 MSS-medium by vigorously shaking and resuspended in MSS-medium. The cells were vigorously shaken, for a washing time of about 14 min, and then centrifuged at 150Orpm for 1 min (387 rcf) with the brake switched off.
The level of synchronicity of the Arabidopsis cell suspension culture MM1 was analysed by flow cytometry. The cell pellet from 5 ml of cell suspension culture was frozen in liquid nitrogen. To analyse the DNA content, the High Resolution Kit for Plant ploidy analysis (Type P) (Partec, Cat. No. 06-5-4004) was used, containing solution A (to release cell nuclei) and solution B (to stain DNA with DAPI). A sample of the frozen cell pellet was transferred into a small petri-dish (5 cm diameter), 150 μl of solution A was added, and the sample was carefully chopped with vertical motion of a sharp razor blade. An additional 150 μl of solution A was added, the cell suspension pipetted up and down for several time before leaving for approximately 2 min at RT. The released cell nuclei were filtered through a 50 μm nylon mesh (Partec, CellTrics 50 μm, Cat. No. 06-4-2317) and 1 ml of solution B was added to the filtrate. On average 8200 particles were counted with a flow cytometer (PASIII; Partec GmbH, Germany), using HBO lamp excitation (Partec, mercury lamp HBO 100 long life, 100W) and detection of emission using a blue filter. Cell cycle phases were analysed using Multicycle for Windows (Phoenix Flow Systems, San Diego, Calif.). Flow cytometry results are not corrected for the mitotic cells (which are not measured by this method).

[2] = test system: Arabidopsis cell suspension culture MM1; assay: Aphidicolin block/release of MM1: mitotic index (DAPI) and labelling index (BrdU); format: cell-based, Arabidopsis thaliana
Description: as §1

[3] = range seen on blocking the cells with aphidicolin
[4] = this experiment (Example 2A), after release from aphidicolin block

With C[C@@]1(CO)[C@H](O)CC[C@@]2(C)[C@H]1CC[C@H]1C[C@@H]3C[C@@]12CC[C@]3(O)CO [aphidicolin] the “G1 (%) MM1” value ([1]; 0 h after aphidicolin removal) was 50.6%, the “G2 (%) MM1” value ([1]; 0 h after aphidicolin removal) was 19.3% and the “S (%) MM1” value ([1]; 0 h after aphidicolin removal) was 30.1%. The “G1 (%) MM1” value ([1]; 1 h after aphidicolin removal) was 23.7%, the “G2 (%) MM1” value ([1]; 1 h after aphidicolin removal) was 11.4% and the “S (%) MM1” value ([1]; 1 h after aphidicolin removal) was 64.9%. For the same compound, the “G1 (%) MM1” value ([1]; 2 h after aphidicolin removal) was 23.8%, the “G2 (%) MM1” value ([1]; 2 h after aphidicolin removal) was 11.4% and the “S (%) MM1” value ([1]; 2 h after aphidicolin removal) was 64.8%. The “G1 (%) MM1” value ([1]; 3 h after aphidicolin removal) was 27.2%, the “G2 (%) MM1” value ([1]; 3 h after aphidicolin removal) was 10.4% and the “S (%) MM1” value ([1]; 3 h after aphidicolin removal) was 62.5%. The “G1 (%) MM1” value ([1]; 4 h after aphidicolin removal) was 23.2%, the “G2 (%) MM1” value ([1]; 4 h after aphidicolin removal) was 44.8% and the “S (%) MM1” value ([1]; 4 h after aphidicolin removal) was 32%. The “G1 (%) MM1” value ([1]; 5 h after aphidicolin removal) was 19.9%, the “G2 (%) MM1” value ([1]; 5 h after aphidicolin removal) was 63.8% and the “S (%) MM1” value ([1]; 5 h after aphidicolin removal) was 16.3%. The “G1 (%) MM1” value ([1]; 6 h after aphidicolin removal) was 16.1%, the “G2 (%) MM1” value ([1]; 6 h after aphidicolin removal) was 83.9% and the “S (%) MM1” value ([1]; 6 h after aphidicolin removal) was 0%. For the same compound, the “G1 (%) MM1” value ([1]; 7 h after aphidicolin removal) was 13.8%, the “G2 (%) MM1” value ([1]; 7 h after aphidicolin removal) was 85.7% and the “S (%) MM1” value ([1]; 7 h after aphidicolin removal) was 0.5%. The “G1 (%) MM1” value ([1]; 8 h after aphidicolin removal) was 10.9%, the “G2 (%) MM1” value ([1]; 8 h after aphidicolin removal) was 88.8% and the “S (%) MM1” value ([1]; 8 h after aphidicolin removal) was 0.3%. The “G1 (%) MM1” value ([1]; 9 h after aphidicolin removal) was 11.1%, the “G2 (%) MM1” value ([1]; 9 h after aphidicolin removal) was 88.9% and the “S (%) MM1” value ([1]; 9 h after aphidicolin removal) was 0%. The “G1 (%) MM1” value ([1]; 10 h after aphidicolin removal) was 10.8%, the “G2 (%) MM1” value ([1]; 10 h after aphidicolin removal) was 89.2% and the “S (%) MM1” value ([1]; 10 h after aphidicolin removal) was 0%. The “G1 (%) MM1” value ([1]; 11 h after aphidicolin removal) was 13.4%, the “G2 (%) MM1” value ([1]; 11 h after aphidicolin removal) was 86.6% and the “S (%) MM1” value ([1]; 11 h after aphidicolin removal) was 0%. The “G1 (%) MM1” value ([1]; 12 h after aphidicolin removal) was 15.1%, the “G2 (%) MM1” value ([1]; 12 h after aphidicolin removal) was 84.1% and the “S (%) MM1” value ([1]; 12 h after aphidicolin removal) was 0.8%. The “G1 (%) MM1” value ([1]; 13 h after aphidicolin removal) was 22.9%, the “G2 (%) MM1” value ([1]; 13 h after aphidicolin removal) was 77.1% and the “S (%) MM1” value ([1]; 13 h after aphidicolin removal) was 0%. The “G1 (%) MM1” value ([1]; 14 h after aphidicolin removal) was 31.5%, the “G2 (%) MM1” value ([1]; 14 h after aphidicolin removal) was 68.5% and the “S (%) MM1” value ([1]; 14 h after aphidicolin removal) was 0%. The “G1 (%) MM1” value ([1]; 15 h after aphidicolin removal) was 38.6%, the “G2 (%) MM1” value ([1]; 15 h after aphidicolin removal) was 61.3% and the “S (%) MM1” value ([1]; 15 h after aphidicolin removal) was 0.2%. The “G1 (%) MM1” value ([1]; 16 h after aphidicolin removal) was 33.4%, the “G2 (%) MM1” value ([1]; 16 h after aphidicolin removal) was 59.6% and the “S (%) MM1” value ([1]; 16 h after aphidicolin removal) was 6.9%. For the same compound, the “G1 (%) MM1” value ([1]; 17 h after aphidicolin removal) was 36.3%, the “G2 (%) MM1” value ([1]; 17 h after aphidicolin removal) was 57.5% and the “S (%) MM1” value ([1]; 17 h after aphidicolin removal) was 6.2%. For the same compound, the “G1 (%) MM1” value ([1]; 18 h after aphidicolin removal) was 35.7%, the “G2 (%) MM1” value ([1]; 18 h after aphidicolin removal) was 56.1% and the “S (%) MM1” value ([1]; 18 h after aphidicolin removal) was 8.2%. For the same compound, the “G1 (%) MM1” value ([1]; 19 h after aphidicolin removal) was 38.4%, the “G2 (%) MM1” value ([1]; 19 h after aphidicolin removal) was 55.6% and the “S (%) MM1” value ([1]; 19 h after aphidicolin removal) was 6%. The “G1 (%) MM1” value ([1]; 20 h after aphidicolin removal) was 41.1%, the “G2 (%) MM1” value ([1]; 20 h after aphidicolin removal) was 48.8% and the “S (%) MM1” value ([1]; 20 h after aphidicolin removal) was 10%. The “Labelling Index (%)” value ([2]; 1 h after aphidicolin removal) was 23.21%, the “Mitotic index (%)” value ([2]; 1 h after aphidicolin removal) was 0% and the “Labelling Index (%)” value ([2]; 2 h after aphidicolin removal) was 41.3%. The “Mitotic index (%)” value ([2]; 2 h after aphidicolin removal) was 0.5%, the “Labelling Index (%)” value ([2]; 3 h after aphidicolin removal) was 65.06% and the “Mitotic index (%)” value ([2]; 3 h after aphidicolin removal) was 0.58%. For the same compound, the “Labelling Index (%)” value ([2]; 4 h after aphidicolin removal) was 64.13%, the “Mitotic index (%)” value ([2]; 4 h after aphidicolin removal) was 0.5% and the “Labelling Index (%)” value ([2]; 5 h after aphidicolin removal) was 50%. For the same compound, the “Mitotic index (%)” value ([2]; 5 h after aphidicolin removal) was 0.68%, the “Labelling Index (%)” value ([2]; 6 h after aphidicolin removal) was 18.43% and the “Mitotic index (%)” value ([2]; 6 h after aphidicolin removal) was 1.88%. For the same compound, the “Labelling Index (%)” value ([2]; 7 h after aphidicolin removal) was 13.67%, the “Mitotic index (%)” value ([2]; 7 h after aphidicolin removal) was 2.37% and the “Labelling Index (%)” value ([2]; 8 h after aphidicolin removal) was 10.32%. The “Mitotic index (%)” value ([2]; 8 h after aphidicolin removal) was 2.04%, the “Labelling Index (%)” value ([2]; 9 h after aphidicolin removal) was 8.1% and the “Mitotic index (%)” value ([2]; 9 h after aphidicolin removal) was 2.63%. For the same compound, the “Labelling Index (%)” value ([2]; 10 h after aphidicolin removal) was 7.86%, the “Mitotic index (%)” value ([2]; 10 h after aphidicolin removal) was 2.84% and the “Labelling Index (%)” value ([2]; 11 h after aphidicolin removal) was 7.65%. The “Mitotic index (%)” value ([2]; 11 h after aphidicolin removal) was 5.06%, the “Labelling Index (%)” value ([2]; 12 h after aphidicolin removal) was 6.8% and the “Mitotic index (%)” value ([2]; 12 h after aphidicolin removal) was 7.96%. The “Labelling Index (%)” value ([2]; 13 h after aphidicolin removal) was 3.08%, the “Mitotic index (%)” value ([2]; 13 h after aphidicolin removal) was 11.67% and the “Labelling Index (%)” value ([2]; 14 h after aphidicolin removal) was 5.05%. For the same compound, the “Mitotic index (%)” value ([2]; 14 h after aphidicolin removal) was 9.03%, the “Labelling Index (%)” value ([2]; 15 h after aphidicolin removal) was 3.68% and the “Mitotic index (%)” value ([2]; 15 h after aphidicolin removal) was 7.86%. The “Labelling Index (%)” value ([2]; 16 h after aphidicolin removal) was 4.09%, the “Mitotic index (%)” value ([2]; 16 h after aphidicolin removal) was 5% and the “Labelling Index (%)” value ([2]; 17 h after aphidicolin removal) was 9.46%. For the same compound, the “Mitotic index (%)” value ([2]; 17 h after aphidicolin removal) was 2.96%, the “Labelling Index (%)” value ([2]; 18 h after aphidicolin removal) was 12.96% and the “Mitotic index (%)” value ([2]; 18 h after aphidicolin removal) was 3.24%. For the same compound, the “Labelling Index (%)” value ([2]; 19 h after aphidicolin removal) was 10.91%, the “Mitotic index (%)” value ([2]; 19 h after aphidicolin removal) was 2.06% and the MI peak [2, 3] was 10 to 15%. The labelling index [2, 3] was 50-65%, the LI peak [2, 4] was 65% and the MI peak [2, 4] was 12%.
